This note sets out measurements from ChEMBL document CHEMBL5634145, “Discovery of novel amidobenzimidazole derivatives as orally available small molecule modulators of stimulator of interferon genes for cancer immunotherapy” (Eur J Med Chem, 2023).

Data set [1] can be described thus: Agonist activity at STING (unknown origin).
The nature of data set [2]: Metabolic stability at phase I in human liver microsomes assessed as remaining activity at 1 uM incubated for 30 mins in presence of NADPH by LC-MS/MS analysis. The data set is classed as ADME, Microsome. The conditions noted are these: read-out: Stability. Background: Liver microsomes are vesicles of endoplasmic reticulum, rich in cytochrome P450 enzymes.
Another data set deals with RAW264.7. Briefly: Cytotoxicity against mouse RAW264.7 cells assessed as reduction in cell viability at 0 to 80 uM incubated for 24 hrs by CellTiter 96 aqueous one solution assay. The settings on record: raw264.7, 24 h, dose 0-80 µM. The data set is classed as toxicity, cell-based.
Data set [3] in a line: Half life in ICR mouse at 5 mg/kg, iv by LC-MS/MS analysis. The data set is classed as ADME, organism-based. The conditions noted are these: in vivo.
Data set [4] is described as follows: Cytotoxicity against human THP1-Dual KO-STING cells assessed as cell viability incubated for 24 hrs by CellTiter 96 aqueous one solution assay relative to control. The data set is classed as toxicity, cell-based. Also noted: concentration or dose not given beside the values. The settings on record: read-out: Activity.
Data set [5] in a line: Clearance in ICR mouse at 5 mg/kg, iv by LC-MS/MS analysis. The data set is classed as ADME, organism-based. The conditions noted are these: in vivo.
Data set [6] is described as follows: AUClast in ICR mouse at 20 mg/kg, po administered via oral gavage by LC-MS/MS analysis. In kind it is ADME, organism-based. The settings on record: in vivo.
Data set [7] is described as follows: Volume of distribution at steady state in ICR mouse at 5 mg/kg, iv by LC-MS/MS analysis. The data set is classed as ADME, organism-based. The conditions noted are these: in vivo, read-out: Vdss.
Another data set concerns THP1-Dual. Briefly: Cytotoxicity against human THP1-Dual cells assessed as reduction in cell viability at 0 to 50 uM incubated for 24 hrs by CellTiter 96 aqueous one solution assay. The data set is classed as toxicity, cell-based. The conditions noted are these: dose 0-50 µM.
Another data set addresses Cytochrome P450 3A4 (Homo sapiens, UniProt P08684). Nature of the data set: Inhibition of CYP3A4 in human liver microsomes using […] as substrate preincubated for 5 min followed by substrate and NADPH addition and measured after 20 mins by LC-MS/MS analysis. The data set is classed as ADME, Microsome.
The nature of data set [8]: Half life in ICR mouse at 20 mg/kg, po administered via oral gavage by LC-MS/MS analysis. The conditions noted are these: in vivo. The data set is classed as ADME, organism-based.
Data set [9] can be described thus: AUC (0 to infinity) in ICR mouse at 5 mg/kg, iv by LC-MS/MS analysis. In kind it is ADME, organism-based. The conditions noted are these: in vivo.
The nature of data set [10]: Metabolic stability at phase I in mouse liver microsomes assessed as remaining activity at 1 uM incubated for 30 mins in presence of NADPH by LC-MS/MS analysis. The data set is classed as ADME, Microsome. The conditions noted are these: read-out: Stability.
The target in the next data set is Cytochrome P450 2D6 (Homo sapiens, UniProt P10635). Nature of the data set: Inhibition of CYP2D6 in human liver microsomes using dextromethorphan as substrate preincubated for 5 min followed by substrate and NADPH addition and measured after 20 mins by LC-MS/MS analysis. The data set is classed as ADME, Microsome.
Chain of Cytochrome P450 2D6 (P10635 whole entry): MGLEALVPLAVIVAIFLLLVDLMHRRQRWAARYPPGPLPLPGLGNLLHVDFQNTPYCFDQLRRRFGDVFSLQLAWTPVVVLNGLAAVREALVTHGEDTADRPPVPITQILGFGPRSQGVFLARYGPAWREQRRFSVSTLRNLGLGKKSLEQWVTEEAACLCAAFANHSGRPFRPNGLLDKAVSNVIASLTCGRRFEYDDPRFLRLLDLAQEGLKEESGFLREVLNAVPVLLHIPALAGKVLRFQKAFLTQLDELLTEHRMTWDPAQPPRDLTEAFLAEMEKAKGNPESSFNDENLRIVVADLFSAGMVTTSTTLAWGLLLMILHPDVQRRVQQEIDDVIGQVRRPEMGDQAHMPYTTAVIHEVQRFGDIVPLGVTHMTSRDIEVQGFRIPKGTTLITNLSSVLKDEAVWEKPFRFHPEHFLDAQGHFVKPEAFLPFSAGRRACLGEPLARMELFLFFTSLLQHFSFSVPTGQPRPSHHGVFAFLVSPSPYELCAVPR
The target of another data set is T1, Cytochrome P450 1A2 (Homo sapiens, UniProt P05177).
T1 sequence (P05177 whole entry): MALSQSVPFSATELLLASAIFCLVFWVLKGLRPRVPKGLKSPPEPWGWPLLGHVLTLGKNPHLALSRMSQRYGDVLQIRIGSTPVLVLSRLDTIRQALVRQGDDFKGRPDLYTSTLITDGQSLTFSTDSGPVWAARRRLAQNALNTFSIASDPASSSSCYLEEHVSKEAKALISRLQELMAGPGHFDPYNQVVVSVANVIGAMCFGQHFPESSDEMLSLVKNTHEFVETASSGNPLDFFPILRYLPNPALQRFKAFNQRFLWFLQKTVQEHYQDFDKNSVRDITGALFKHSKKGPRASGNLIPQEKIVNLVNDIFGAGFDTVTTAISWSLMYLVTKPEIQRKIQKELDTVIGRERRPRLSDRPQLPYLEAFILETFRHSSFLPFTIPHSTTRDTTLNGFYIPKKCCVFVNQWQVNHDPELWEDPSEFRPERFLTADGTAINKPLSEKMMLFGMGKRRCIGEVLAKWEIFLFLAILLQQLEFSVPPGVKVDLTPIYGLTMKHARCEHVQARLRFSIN
Nature of the data set: Inhibition of CYP1A2 in human liver microsomes using phenacetin as substrate preincubated for 5 min followed by substrate and NADPH addition and measured after 20 mins by LC-MS/MS analysis. The data set is classed as ADME, Microsome.

Data set [11] is described as follows: Plasma protein binding in mouse. The data set is classed as ADME, cell-free. The conditions noted are these: read-out: PPB (converted).
Data set [12] is described as follows: Cmax in ICR mouse at 20 mg/kg, po administered via oral gavage by LC-MS/MS analysis. The data set is classed as ADME, organism-based. The conditions noted are these: in vivo.
Data set [13] is described as follows: Stability in human plasma assessed as remaining activity at 5 uM incubated for 4 hrs by LC-MS/MS analysis. The data set is classed as ADME, cell-free. The conditions noted are these: read-out: Stability.
A short description of data set [14]: AUClast in ICR mouse at 5 mg/kg, iv by LC-MS/MS analysis. The data set is classed as ADME, organism-based. The conditions noted are these: in vivo.
Data set [15] can be described thus: Toxicity in BALB/c mouse implanted with mouse 4T1 cells assessed as body weight loss at 16 mg/kg, po administrated every other day for 6 times and measured after 12 days. In kind it is organism-based. The settings on record: in vivo, 288 h, time 12 day.
Data set [16] has as its target Voltage-gated inwardly rectifying potassium channel KCNH2 (Homo sapiens, UniProt Q12809). Briefly: Inhibition of hERG by non-electrophysiological analysis. In kind it is toxicity. (In general: hERG is a cardiac potassium channel; its block is linked to QT prolongation.)
Another data set addresses Cytochrome P450 2C19 (Homo sapiens, UniProt P33261). Briefly: Inhibition of CYP2C19 in human liver microsomes using S-Mephenytoin as substrate preincubated for 5 min followed by substrate and NADPH addition and measured after 20 mins by LC-MS/MS analysis. The data set is classed as ADME, Microsome.
The nature of data set [17]: Cytotoxicity against wild type human THP1-Dual cells assessed as cell viability incubated for 24 hrs by CellTiter 96 aqueous one solution assay relative to control. The data set is classed as toxicity, cell-based. Also noted: concentration or dose not given beside the values. The settings on record: read-out: Activity.
A short description of data set [18]: Stability in mouse plasma assessed as remaining activity at 5 uM incubated for 4 hrs by LC-MS/MS analysis. In kind it is ADME, cell-free. The conditions noted are these: read-out: Stability.
Data set [19] can be described thus: Oral bioavailability in ICR mouse at 20 mg/kg administered via oral gavage by LC-MS/MS analysis. In kind it is ADME, organism-based. The conditions noted are these: in vivo.
Data set [20] is described as follows: Plasma protein binding in human. The conditions noted are these: read-out: PPB (converted). The data set is classed as ADME, cell-free.
In the next data set the target is Cytochrome P450 2C9 (Homo sapiens, UniProt P11712). Briefly: Inhibition of CYP2C9 in human liver microsomes using tolbutamide as substrate preincubated for 5 min followed by substrate and NADPH addition and measured after 20 mins by LC-MS/MS analysis. The data set is classed as ADME, Microsome.
Chain of Cytochrome P450 2C9 (P11712 whole entry): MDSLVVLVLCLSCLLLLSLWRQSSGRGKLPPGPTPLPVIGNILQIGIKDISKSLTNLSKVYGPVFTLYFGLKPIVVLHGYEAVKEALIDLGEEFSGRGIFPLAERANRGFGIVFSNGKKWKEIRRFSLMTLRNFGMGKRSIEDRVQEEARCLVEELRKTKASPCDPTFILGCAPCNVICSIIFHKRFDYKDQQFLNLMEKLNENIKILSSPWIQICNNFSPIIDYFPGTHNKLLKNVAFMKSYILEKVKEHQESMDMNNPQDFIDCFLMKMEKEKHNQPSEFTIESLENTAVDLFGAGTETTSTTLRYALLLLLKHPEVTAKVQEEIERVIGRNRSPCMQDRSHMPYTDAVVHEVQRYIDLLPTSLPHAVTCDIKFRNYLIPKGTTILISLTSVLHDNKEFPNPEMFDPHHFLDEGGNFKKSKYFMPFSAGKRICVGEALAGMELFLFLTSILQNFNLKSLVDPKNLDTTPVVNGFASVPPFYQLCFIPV
Data set [21] is described as follows: AUC (0 to infinity) in ICR mouse at 20 mg/kg, po administered via oral gavage by LC-MS/MS analysis. In kind it is ADME, organism-based. The settings on record: in vivo.
Data set [22] in a line: Tmax in ICR mouse at 20 mg/kg, po administered via oral gavage by LC-MS/MS analysis. The data set is classed as ADME, organism-based. The conditions noted are these: in vivo.

Chain of Cytochrome P450 3A4 (P08684 whole entry): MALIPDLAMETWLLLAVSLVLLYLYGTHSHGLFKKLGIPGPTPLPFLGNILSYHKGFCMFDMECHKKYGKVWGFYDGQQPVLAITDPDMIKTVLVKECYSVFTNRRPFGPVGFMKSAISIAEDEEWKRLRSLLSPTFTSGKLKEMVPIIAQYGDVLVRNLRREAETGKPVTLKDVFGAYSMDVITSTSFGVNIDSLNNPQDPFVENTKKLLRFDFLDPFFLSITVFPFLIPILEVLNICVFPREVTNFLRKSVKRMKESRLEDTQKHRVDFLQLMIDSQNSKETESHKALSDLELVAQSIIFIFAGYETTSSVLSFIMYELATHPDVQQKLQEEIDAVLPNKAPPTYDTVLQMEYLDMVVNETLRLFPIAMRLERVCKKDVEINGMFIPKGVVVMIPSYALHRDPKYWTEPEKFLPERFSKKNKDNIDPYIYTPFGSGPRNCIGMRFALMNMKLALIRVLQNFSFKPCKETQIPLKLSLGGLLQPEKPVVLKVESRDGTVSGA
Chain of Cytochrome P450 2C19 (P33261 whole entry): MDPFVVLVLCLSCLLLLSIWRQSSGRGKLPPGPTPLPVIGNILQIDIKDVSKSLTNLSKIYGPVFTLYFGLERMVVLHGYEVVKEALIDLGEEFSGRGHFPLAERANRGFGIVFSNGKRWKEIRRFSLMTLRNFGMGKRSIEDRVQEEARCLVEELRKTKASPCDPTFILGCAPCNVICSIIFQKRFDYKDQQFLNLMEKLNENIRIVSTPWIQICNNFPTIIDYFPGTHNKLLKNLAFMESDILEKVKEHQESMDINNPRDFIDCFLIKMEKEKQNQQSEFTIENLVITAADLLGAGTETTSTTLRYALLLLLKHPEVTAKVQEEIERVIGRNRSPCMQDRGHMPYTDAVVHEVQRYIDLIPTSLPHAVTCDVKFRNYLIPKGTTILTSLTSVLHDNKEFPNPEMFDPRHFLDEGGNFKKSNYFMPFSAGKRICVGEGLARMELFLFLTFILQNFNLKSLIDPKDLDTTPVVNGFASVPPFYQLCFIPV
Chain of Voltage-gated inwardly rectifying potassium channel KCNH2 (Q12809 whole entry): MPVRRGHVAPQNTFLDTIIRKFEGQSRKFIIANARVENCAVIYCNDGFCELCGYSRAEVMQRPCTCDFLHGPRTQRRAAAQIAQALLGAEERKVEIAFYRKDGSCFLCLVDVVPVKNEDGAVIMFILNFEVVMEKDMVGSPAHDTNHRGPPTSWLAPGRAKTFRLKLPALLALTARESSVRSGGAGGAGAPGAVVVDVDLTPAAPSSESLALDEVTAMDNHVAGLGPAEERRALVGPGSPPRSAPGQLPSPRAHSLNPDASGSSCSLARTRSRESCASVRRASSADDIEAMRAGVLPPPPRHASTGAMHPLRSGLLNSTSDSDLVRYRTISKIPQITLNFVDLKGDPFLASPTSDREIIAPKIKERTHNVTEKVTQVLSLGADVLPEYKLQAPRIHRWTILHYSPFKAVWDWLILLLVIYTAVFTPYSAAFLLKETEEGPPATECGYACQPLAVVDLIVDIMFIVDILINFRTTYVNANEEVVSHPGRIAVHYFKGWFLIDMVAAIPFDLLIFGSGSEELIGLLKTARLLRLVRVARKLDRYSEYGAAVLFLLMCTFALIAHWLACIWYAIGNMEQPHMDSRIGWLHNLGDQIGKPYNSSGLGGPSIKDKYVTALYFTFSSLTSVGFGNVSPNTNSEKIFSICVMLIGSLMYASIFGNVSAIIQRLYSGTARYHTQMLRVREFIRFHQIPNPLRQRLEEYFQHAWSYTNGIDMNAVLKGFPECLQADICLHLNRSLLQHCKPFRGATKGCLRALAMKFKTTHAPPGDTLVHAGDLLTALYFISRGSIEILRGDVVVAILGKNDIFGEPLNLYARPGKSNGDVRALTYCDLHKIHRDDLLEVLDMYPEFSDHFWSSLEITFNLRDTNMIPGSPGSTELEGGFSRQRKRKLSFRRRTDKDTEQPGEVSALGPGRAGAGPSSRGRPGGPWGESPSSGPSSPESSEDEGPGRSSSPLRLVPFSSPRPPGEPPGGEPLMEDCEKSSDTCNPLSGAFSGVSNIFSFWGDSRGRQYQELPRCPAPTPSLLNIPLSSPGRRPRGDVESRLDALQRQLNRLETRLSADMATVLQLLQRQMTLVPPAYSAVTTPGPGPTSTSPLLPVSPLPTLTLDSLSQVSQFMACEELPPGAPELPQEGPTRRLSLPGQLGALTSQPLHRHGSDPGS

`CCn1nc(C)cc1C(=O)/N=c1\[nH]c2cc(C(N)=O)ccc2n1C[C@@H](O)c1ccccc1` registered an EC50 in [1] of 102 µM.
As for `Cc1ncccc1C(=O)Nc1nc2cc(C(N)=O)ccc2n1CCCCNC(=O)OC(C)(C)C`, the remaining at 0.5 h, 1 µM worked out at 27.9% in data set [2] and 18.1% in [10]. Besides, the Activity result (in the data set on RAW264.7; in the data set on THP1-Dual; in [15]) was “Non-Toxic” in each case. Moreover, the half-life in data set [3] was 11.2 h; in data set [8], 13.3 h. The viability at 24 h was determined as 106% in data set [4] and 99.4% in data set [17]. This compound also gave a clearance in data set [5] of 95.5 mL/min/kg. Besides, the figures for the AUC(0-t) in [6] and in data set [14] were 180 ng·h/mL and 880 ng·h/mL, respectively. In addition, the Vd in [7] was 11.7 L/kg. Moreover, the IC50 against Cytochrome P450 3A4 was 10.5 µM; against Cytochrome P450 2D6, 16.5 µM; against Cytochrome P450 1A2 it was greater than 100 µM; in data set [16], greater than 100 µM; against Cytochrome P450 2C19, 8.8 µM; against Cytochrome P450 2C9, 28.3 µM. The AUC(0-inf) in data set [9] is 900 ng·h/mL; in [21], 210 ng·h/mL. The fraction unbound in data set [11] is 0.0624; in data set [20] it was 0.0211. This compound showed a Cmax in [12] of 110 ng/mL. The remaining at 4 h, 5 µM in [13] is greater than 99.9%; in data set [18], 99.5%. This compound yielded a bioavailability in [19] of 5.23%. Also, the Tmax in [22] came out at 0.42 h.

For orientation: EC50 means the concentration giving half of the maximal effect. As usually defined, the half-life is how long it takes for the measured level to halve. As usually defined, the clearance is a measure of how efficiently the substance is removed, as volume per time. By AUC(0-t) is commonly meant exposure summed from dosing to a finite time, without extrapolation to infinity. For orientation: IC50 means the concentration that gives 50% inhibition. A word on the AUC(0-inf): it is total exposure, with the tail of the curve extrapolated. For orientation: Cmax means the peak of the concentration-time curve. The bioavailability is dose-corrected exposure relative to a reference, in per cent. Broadly, the Tmax is the time at which the peak concentration occurs.
